In patent EP4722209A1 (Beijing Shenogen Pharma Group, priority 2023, dated 2024):

Biological target: T1, ERα (Homo sapiens, UniProt P03372)
T1 construct: host or cells: MCF-7
T1 sequence (P03372 1-595): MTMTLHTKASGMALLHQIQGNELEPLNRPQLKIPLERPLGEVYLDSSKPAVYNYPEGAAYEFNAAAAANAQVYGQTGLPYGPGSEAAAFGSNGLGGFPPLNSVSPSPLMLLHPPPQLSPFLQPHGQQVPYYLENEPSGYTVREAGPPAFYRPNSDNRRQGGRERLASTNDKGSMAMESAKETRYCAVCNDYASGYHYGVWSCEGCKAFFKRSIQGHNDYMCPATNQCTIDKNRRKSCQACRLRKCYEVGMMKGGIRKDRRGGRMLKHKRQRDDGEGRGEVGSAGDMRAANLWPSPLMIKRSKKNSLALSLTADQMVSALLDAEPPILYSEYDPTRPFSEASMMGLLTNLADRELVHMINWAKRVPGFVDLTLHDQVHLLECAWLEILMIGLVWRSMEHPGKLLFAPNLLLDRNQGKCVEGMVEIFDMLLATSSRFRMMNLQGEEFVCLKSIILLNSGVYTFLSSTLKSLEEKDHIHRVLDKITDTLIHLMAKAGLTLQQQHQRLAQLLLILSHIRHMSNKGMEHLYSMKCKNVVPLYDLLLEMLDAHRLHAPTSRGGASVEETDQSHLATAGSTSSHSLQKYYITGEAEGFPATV
Assay: ER degradation activity in MCF-7 cells (Western blot, grayscale intensity)
Assay type: cell-based
Details: 6 hours treatment, 1 nM to 100 nM, concentration required to degrade 50% of the target protein
Procedure: ERα-positive human breast cancer cells MCF-7 (ATCC, HTB-22) were cultured with EMEM medium (ATCC, catalog number 30-2003) containing 10% fetal bovine serum (Thermo Fisher, catalog number 10099141) and 10 µg/mL bovine insulin in 25 cm^2 or 75 cm^2 plastic tissue culture flasks in a 37 °C incubator with 5% CO2. The cells were passaged 2 to 3 times per week. MCF-7 cells were seeded in 6-well plate at 1×10^6 cells/well with 1.8 mL culture medium per well, and cultured in a 37 °C incubator with 95% air and 5% CO2. After 24 hours, the test compounds were added: the compounds were serially diluted 10-fold in DMSO starting from 10 mM (dissolved in DMSO) to prepare gradient stock solutions. A complete culture medium containing 1% DMSO was prepared for further dilution, temporarily named as the "dilution buffer." Working solutions were prepared by diluting each stock solution with 99 times the volume of dilution buffer, that is, by adding 1 µL of the 10 mM stock solution to 99 µL of the dilution buffer and mixing thoroughly.
Finally, […] of the working solution was added to the cell-seeded culture plate. The final concentration of DMSO in the cell culture medium was 0.2%, and the final concentration of the test compounds ranged from 1 nM to 100 nM. The cells were then incubated at 37 °C for 6 hours.
The culture medium was removed, and the cells were washed twice with ice cold PBS. 1 mL of PBS was added to each well, and the cells were collected into EP tubes using a cell scraper, and centrifuged at 4 °C, 4000 rpm for 5 minutes. PBS was aspirated. Total protein was extracted using the Minute™ Mammalian Tissue/Cell Total Protein Extraction Reagent. The protein concentration was measured using the BCA protein assay kit. 30 µg of protein was taken and mixed with 5× SDS-PAGE loading buffer, boiled for 10 minutes, and cooled. The samples were loaded into wells of a precast gel, with constant voltage at 80 V for 30 minutes, and then the voltage was changed to 120 V after the samples entered the resolving gel. The "sandwich" (sponge - filter paper - gel - membrane - filter paper - sponge) was assembled for Bio-Rad's Transblot. Transfer was performed for 1 hour at 0.3 amp at 4 °C. The sample was blocked with 5% fat-free milk for 1 hour, and incubated with Estrogen Receptor alpha Antibody (Thermo Fisher, catalog number MA5-14104) overnight at 4 °C. The membrane was washed with TBST to remove non-specifically bound antibodies, and then incubated with goat anti-mouse IgG-HRP secondary antibody for 1 hour at room temperature, and was visualized using ECL. The protein degradation level was calculated by measuring the grayscale intensity.
The DC50 values (i.e., the concentration of the test compounds required to degrade 50% of the target protein) were calculated and shown in Table 1. A corresponds to a DC50 value below 10 nM, B corresponds to a DC50 value greater than 10 nM and less than 100 nM, and C corresponds to DC50 values greater than 100 nM. Table 1. The DC50 values of exemplary compounds in MCF-7 cells

Row | Compound | DC50 [µM]
1 | CC1(C)CC(=C(c2ccc3[nH]nc(F)c3c2)c2c(F)cc(N3CCC(CN4CCN(c5ccc6c(c5)CN(C5CCC(=O)NC5=O)C6=O)CC4)CC3)cc2F)CC(C)(C)O1 (centres unmarked) [Compound 55] | > 0.1
2 | CC1(C)CC(=C(c2ccc3[nH]nc(F)c3c2)c2c(F)cc(N3CCC(CN4CCN(c5ccc6c(c5)C(=O)N(C5CCC(=O)NC5=O)C6=O)CC4)CC3)cc2F)CC(C)(C)O1 (centres unmarked) [Compound 12] | 0.01 to 0.1
3 | CC1(C)CC(=C(c2ccc(N3CCC(CN4CCN(c5ccc6c(c5)CN(C5CCC(=O)NC5=O)C6=O)CC4)CC3)nc2)c2ccc3cncn3c2)CC(C)(C)O1 (centres unmarked) [Compound 113] | > 0.1
4 | CC1(C)CC(=C(c2ccc(N3CCC(CN4CCN(c5ccc6c(c5)CN(C5CCC(=O)NC5=O)C6=O)CC4)CC3)nc2)c2ccc3[nH]ncc3c2)CC(C)(C)O1 (centres unmarked) [Compound 39] | < 0.01
5 | CC1(C)CC(=C(c2ccc(OC3CN(C4CCN(c5ccc6c(c5)C(=O)N(C5CCC(=O)NC5=O)C6=O)CC4)C3)cc2)c2ccc3[nH]nc(F)c3c2)CC(C)(C)O1 (centres unmarked) [Compound 20] | > 0.1
6 | Cn1c(=O)n(C2CCC(=O)NC2=O)c2cccc(C#CCOC3CCN(c4ccc(C(=C5CC(C)(C)OC(C)(C)C5)c5ccc6[nH]nc(F)c6c5)cn4)CC3)c21 (centres unmarked) [Compound 100] | > 0.1
7 | CC1(C)CC(=C(c2ccc(N3CCN(C4CN(c5ccc6c(c5)C(=O)N(C5CCC(=O)NC5=O)C6=O)C4)CC3)nc2)c2ccc3[nH]nc(F)c3c2)CC(C)(C)O1 (centres unmarked) [Compound 106] | > 0.1
8 | CC1(C)CC(=C(c2ccc(N3CCC(CN4CCN(c5ccc(C(=O)N[C@H]6CCC(=O)NC6=O)nc5)CC4)CC3)nc2)c2ccc3[nH]nc(F)c3c2)CC(C)(C)O1 [Compound 128] | 0.01 to 0.1
9 | CC1(C)CC(=C(c2ccc(OC3CN(CC4CN(c5ccc6c(c5)C(=O)N(C5CCC(=O)NC5=O)C6=O)C4)C3)nc2)c2ccc3[nH]nc(F)c3c2)CC(C)(C)O1 (centres unmarked) [Compound 30] | > 0.1
10 | CC1(C)CC(=C(c2ccc3[nH]nc(F)c3c2)c2c(F)cc(OC3CN(CC4CN(c5ccc6c(c5)C(=O)N(C5CCC(=O)NC5=O)C6=O)C4)C3)cc2F)CC(C)(C)O1 (centres unmarked) [Compound 26] | < 0.01
11 | CC1(C)CC(=C(c2ccc(OC3CN(CC4CN(c5ccc6c(c5)C(=O)N(C5CCC(=O)NC5=O)C6=O)C4)C3)cc2)c2ccc3[nH]nc(F)c3c2)CC(C)(C)O1 (centres unmarked) [Compound 32] | > 0.1
12 | CC1(C)CC(=C(c2ccc(N3CCC(CN4CCN(c5ccc6c(c5)C(=O)N([C@H]5CCC(=O)NC5=O)C6=O)CC4)CC3)cc2)c2ccc3[nH]ncc3c2)CC(C)(C)O1 [Compound 131] | < 0.01
13 | CC1(C)CC(=C(c2ccc3[nH]nc(F)c3c2)c2c(F)cc(OC3CN(C4CCN(c5ccc6c(c5)C(=O)N(C5CCC(=O)NC5=O)C6=O)CC4)C3)cc2F)CC(C)(C)O1 (centres unmarked) [Compound 25] | > 0.1
14 | CC1(C)CC(=C(c2ccc(OC3CN(CC4CCN(c5ccc6c(c5)C(=O)N(C5CCC(=O)NC5=O)C6=O)CC4)C3)nc2)c2ccc3[nH]nc(F)c3c2)CC(C)(C)O1 (centres unmarked) [Compound 7] | 0.01 to 0.1
15 | CC1(C)CC(=C(c2ccc(OC3CN(C4CCN(c5ccc6c(c5)C(=O)N(C5CCC(=O)NC5=O)C6=O)CC4)C3)nc2)c2ccc3[nH]nc(F)c3c2)CC(C)(C)O1 (centres unmarked) [Compound 18] | > 0.1
16 | CC1(C)CC(=C(c2ccc(OCCN3CCN(c4ccc5c(c4)C(=O)N(C4CCC(=O)NC4=O)C5=O)CC3)nc2)c2ccc3[nH]nc(F)c3c2)CC(C)(C)O1 (centres unmarked) [Compound 28] | > 0.1
17 | CC1(C)CC(=C(c2ccc(N3CCC(CN4CCN(c5ccc6c(c5)CN([C@@H]5CCC(=O)NC5=O)C6=O)CC4)CC3)nc2)c2ccc3[nH]ncc3c2)CC(C)(C)O1 [Compound 136] | < 0.01
18 | CC1(C)CC(=C(c2ccc3[nH]nc(F)c3c2)c2c(F)cc(N3CC(CN4CCN(c5ccc6c(c5)C(=O)N(C5CCC(=O)NC5=O)C6=O)CC4)C3)cc2F)CC(C)(C)O1 (centres unmarked) [Compound 15] | 0.01 to 0.1
19 | CC1(C)CC(=C(c2ccc(N)nc2)c2ccc(N3CCC(CN4CCN(c5ccc6c(c5)CN(C5CCC(=O)NC5=O)C6=O)CC4)CC3)nc2)CC(C)(C)O1 (centres unmarked) [Compound 116] | > 0.1
20 | CC1(C)CC(=C(c2ccc(N3CCC(CN4CCN(c5ccc6c(c5)CN(C5CCC(=O)NC5=O)C6=O)CC4)CC3)nc2)c2ccc3c(F)n[nH]c3c2)CC(C)(C)O1 (centres unmarked) [Compound 112] | 0.01 to 0.1
21 | CC1(C)CC(=C(c2ccc(OC3CN(C4CN(c5ccc6c(c5)C(=O)N(C5CCC(=O)NC5=O)C6=O)C4)C3)cc2)c2ccc3[nH]nc(F)c3c2)CC(C)(C)O1 (centres unmarked) [Compound 21] | > 0.1

The next lines start with the values.

Row | DC50 [µM] | Compound
22 | < 0.01 | CC1(C)CC(=C(c2ccc(N3CCC(CN4CCC(N5Cc6cc7c(cc6C5)C(=O)N(C5CCC(=O)NC5=O)C7)CC4)CC3)nc2)c2ccc3[nH]nc(F)c3c2)CC(C)(C)O1 (centres unmarked) [Compound 69]
23 | > 0.1 | CC1(C)CC(=C(c2ccc(N3CCN(C(=O)C4CCN(c5ccc6c(c5)CN(C5CCC(=O)NC5=O)C6=O)CC4)CC3)nc2)c2ccc3[nH]nc(F)c3c2)CC(C)(C)O1 (centres unmarked) [Compound 65]
24 | > 0.1 | CC1(C)CC(=C(c2ccc(N3CCC(CN4CCN(c5cccc(N6CCC(=O)NC6=O)c5)CC4)CC3)nc2)c2ccc3[nH]nc(F)c3c2)CC(C)(C)O1 [Compound 75]
25 | > 0.1 | Cn1nc(N2CCC(=O)NC2=O)c2ccc(C3CCN(CC(=O)N4CCN(c5ccc(C(=C6CC(C)(C)OC(C)(C)C6)c6ccc7[nH]nc(F)c7c6)cn5)CC4)CC3(F)F)cc21 (centres unmarked) [Compound 93]
26 | > 0.1 | Cn1nc(N2CCC(=O)NC2=O)c2ccc(C3CCN(CC(=O)N4CC5(C4)CN(c4ccc(C(=C6CC(C)(C)OC(C)(C)C6)c6ccc7[nH]nc(F)c7c6)cn4)C5)CC3(F)F)cc21 (centres unmarked) [Compound 94]
27 | 0.01 to 0.1 | CC1(C)CC(=C(c2ccc(N3CCC(N4CCN(c5ccc6c(c5)CN([C@H]5CCC(=O)NC5=O)C6=O)CC4)CC3)cc2)c2ccc3[nH]nc(F)c3c2)CC(C)(C)O1 [Compound 135]
28 | 0.01 to 0.1 | CN(CC1CCN(c2ccc(C(=C3CC(C)(C)OC(C)(C)C3)c3ccc4[nH]nc(F)c4c3)cn2)CC1)C1CCN(c2cccn3c(N4CCC(=O)NC4=O)cnc23)CC1 [Compound 97]
29 | > 0.1 | CC1(C)CC(=C(c2ccc(N3CC(CN4CCN(c5ccc6c(c5)CN(C5CCC(=O)NC5=O)C6=O)CC4)C3)nc2)c2ccc3[nH]nc(F)c3c2)CC(C)(C)O1 (centres unmarked) [Compound 40]
30 | < 0.01 | Cn1nc(N2CCC(=O)NC2=O)c2cc(F)c(N3CCN(C4CC5(CCN(c6ccc(C(=C7CC(C)(C)OC(C)(C)C7)c7ccc8[nH]nc(F)c8c7)cn6)CC5)C4)CC3)cc21 [Compound 125]
31 | > 0.1 | CN(CC1CCN(c2ccc(C(=C3CC(C)(C)OC(C)(C)C3)c3ccc4[nH]nc(F)c4c3)cn2)CC1)C1CCN(c2ccn3c(N4CCC(=O)NC4=O)cnc3c2)CC1 [Compound 98]
32 | > 0.1 | CC1(C)CC(=C(c2ccc(N3CCC(CN4CCN(c5ccc6c(c5)C(=O)N(C5CCC(=O)NC5=O)C6)CC4)CC3)nc2)c2ccc3[nH]nc(F)c3c2)CC(C)(C)O1 (centres unmarked) [Compound 118]
33 | 0.01 to 0.1 | CC1(C)CC(=C(c2ccc(N3CCC(F)(CNC4CCN(c5ccc6c(c5)CN([C@H]5CCC(=O)NC5=O)C6=O)CC4)CC3)nc2)c2ccc3[nH]nc(F)c3c2)CC(C)(C)O1 [Compound 143]
34 | > 0.1 | CC1(C)CC(=C(c2ccc(N3CCN(C4CCN(c5ccc6c(c5)CN(C5CCC(=O)NC5=O)C6=O)CC4)CC3)nc2)c2ccc3[nH]nc(F)c3c2)CC(C)(C)O1 (centres unmarked) [Compound 67]
35 | 0.01 to 0.1 | CC1(C)CC(=C(c2ccc(N3CCC4(CC3)CC(N3CCN(c5ccc(C(=O)N[C@H]6CCC(=O)NC6=O)nc5)CC3)C4)nc2)c2ccc3[nH]nc(F)c3c2)CC(C)(C)O1 [Compound 129]
